Values of other authors in patent EP2231118B2, “SUSPENSION COMPRISING NON-MICRONIZED EZETIMIBE MICRO-PARTICLES” (KRKA, tovarna zdravil, d.d., Novo mesto, priority 2007, dated 2009).

solubility in water: practically insoluble
SMILES: O=C1[C@H](CC[C@H](O)c2ccc(F)cc2)[C@@H](c2ccc(O)cc2)N1c1ccc(F)cc1 [Ezetimibe, 1-(4-fluorophenyl)-3(R)-[3-(4-fluorophenyl)-3(S)-hydroxypropyl]-4(S)-(4-hydroxyphenyl)-2-azetidinone]
